From patent US8247426B2, “Crystalline irinotecan hydrochloride and methods for its preparation” (Antibioticos S.p.A., priority 2008, dated 2012)
Structures can show the parent of a compound that is named as a salt.

Assay: solubility in water at room temperature
Format: physicochemical

- solubility: > 20 mg/mL
Compound: CCc1c2c(nc3ccc(OC(=O)N4CCC(N5CCCCC5)CC4)cc13)-c1cc3c(c(=O)n1C2)COC(=O)[C@]3(O)CC [form H, irinotecan hydrochloride]
